Laboratory results as given in PubChem BioAssay AID330 (DTP/NCI, 2004).
Values joined by “and” are separate entries in the source; they are usually repeats but may differ in a detail not shown here. Equal entries are not always repeated. Toxic doses and inconclusive results are not listed. Rule for the calls: active = survival T/C of 150% or more; inactive = T/C below 125% in these data.

Test system: P388 leukemia ip, CD2F1 mice, survival T/C
Assay: NCI In Vivo Anticancer Drug Screen. Data for tumor model P388 Leukemia (intraperitoneal) in CD2F1 (CDF1) mice
Conditions: endpoint: median survival time, higher = longer survival
Procedure, shortened: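 Mice carrying the transplanted tumor received test compound or vehicle. Survival was recorded in each group, and the value is the treated-group measurement divided by that of the vehicle-treated control group.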

[1] = dose: 100.0 mg/kg/injection, schedule: Q01DX001 (ip), vehicle: saline with Tween-80
[2] = dose: 200.0 mg/kg/injection, schedule: Q01DX001 (ip), vehicle: saline with Tween-80
[3] = dose: 50.0 mg/kg/injection, schedule: Q01DX005 (ip), vehicle: Klucel (hydroxypropylcellulose) (HPC)
[4] = dose: 100.0 mg/kg/injection, schedule: Q01DX005 (ip), vehicle: Klucel (hydroxypropylcellulose) (HPC)
[5] = dose: 200.0 mg/kg/injection, schedule: Q01DX005 (ip), vehicle: Klucel (hydroxypropylcellulose) (HPC)
[6] = dose: 60.0 mg/kg/injection, schedule: Q01DX005 (ip), vehicle: saline with Tween-80
[7] = dose: 120.0 mg/kg/injection, schedule: Q01DX005 (ip), vehicle: saline with Tween-80
[8] = dose: 240.0 mg/kg/injection, schedule: Q01DX005 (ip), vehicle: saline with Tween-80

Measured: T/C

COc1cc(CC(=O)O)c([N+](=O)[O-])cc1C
inactive: dose: 25.0 mg/kg/injection, schedule: Q01DX001 (ip), vehicle: Klucel (hydroxypropylcellulose) (HPC) 90 % of control | dose: 50.0 mg/kg/injection, schedule: Q01DX001 (ip), vehicle: Klucel (hydroxypropylcellulose) (HPC) 91 % of control | dose: 100.0 mg/kg/injection, schedule: Q01DX001 (ip), vehicle: Klucel (hydroxypropylcellulose) (HPC) 91 % of control

CCc1cnc(=S)n(-c2ccccc2)c1
inactive: [1] 99 % of control | [2] 95 % of control

CCOC(=O)C(C(C)N1CCOCC1)N1CCOCC1 (centres undefined)
inactive: [3] 110 % of control | [4] 100 % of control | [5] 101 % of control

CC(=O)Nc1cc(C(=O)O)cc(C(=O)O)c1
inactive: dose: 50.0 mg/kg/injection, schedule: Q01DX009 (ip), vehicle: saline with Tween-80 109 % of control | dose: 100.0 mg/kg/injection, schedule: Q01DX009 (ip), vehicle: saline with Tween-80 105 % of control | dose: 200.0 mg/kg/injection, schedule: Q01DX009 (ip), vehicle: saline with Tween-80 92 % of control

COc1ccc(C(=O)CCc2c(-c3ccccc3)[nH]c3ccccc23)c(O)c1
inactive: [6] 107 % of control | [7] 100 % of control | [8] 97 % of control

O=S(=O)(OCC(O)C1OCC(O)C1O)c1ccccc1 (centres undefined)
inactive: dose: 50.0 mg/kg/injection, schedule: Q01DX009 (ip), vehicle: saline 98 % of control | dose: 100.0 mg/kg/injection, schedule: Q01DX009 (ip), vehicle: saline 100 % of control | dose: 200.0 mg/kg/injection, schedule: Q01DX009 (ip), vehicle: saline 105 % of control

O=C(c1ccc(Cl)cc1)N1CCN(C(=O)N2CCN(C(=O)N3CCN(C(=O)c4ccc(Cl)cc4)CC3)CC2)CC1
inactive: dose: 3.75 mg/kg/injection, schedule: Q01DX005 (ip), vehicle: saline with Tween-80 99 % of control | dose: 7.5 mg/kg/injection, schedule: Q01DX005 (ip), vehicle: saline with Tween-80 99 % of control | dose: 15.0 mg/kg/injection, schedule: Q01DX005 (ip), vehicle: saline with Tween-80 100 % of control | dose: 30.0 mg/kg/injection, schedule: Q01DX005 (ip), vehicle: saline with Tween-80 89 % of control | [6] 92 % of control | [8] 89 % of control

C[C@]12CCC(=O)C(O)=C1CC[C@@H]1[C@@H]2CC[C@]2(C)C(=O)CC[C@@H]12
inactive: dose: 12.5 mg/kg/injection, schedule: Q01DX009 (ip), vehicle: Klucel (hydroxypropylcellulose) (HPC) 111 % of control and 96 % of control | dose: 25.0 mg/kg/injection, schedule: Q01DX009 (ip), vehicle: Klucel (hydroxypropylcellulose) (HPC) 100 % of control and 111 % of control | dose: 50.0 mg/kg/injection, schedule: Q01DX009 (ip), vehicle: Klucel (hydroxypropylcellulose) (HPC) 105 % of control and 106 % of control | dose: 100.0 mg/kg/injection, schedule: Q01DX009 (ip), vehicle: Klucel (hydroxypropylcellulose) (HPC) 92 % of control and 93 % of control | dose: 200.0 mg/kg/injection, schedule: Q01DX009 (ip), vehicle: Klucel (hydroxypropylcellulose) (HPC) 92 % of control and 96 % of control | dose: 400.0 mg/kg/injection, schedule: Q01DX009 (ip), vehicle: Klucel (hydroxypropylcellulose) (HPC) 111 % of control and 88 % of control

CN1CC2(CO)C(c3ccccc3)OC(c3ccccc3)C(CO)(C1)C2O (centres undefined)
inactive: [6] 104 % of control and 100 % of control | [7] 107 % of control and 100 % of control | [8] 96 % of control

CO
inactive: dose: 0.5 % in 0.5 ml injection vol, schedule: Q01DX009 (ip), vehicle: water 105 % of control | dose: 1.0 % in 0.5 ml injection vol, schedule: Q01DX009 (ip), vehicle: water 102 % of control | dose: 2.0 % in 0.5 ml injection vol, schedule: Q01DX009 (ip), vehicle: water 104 % of control | dose: 4.0 % in 0.5 ml injection vol, schedule: Q01DX009 (ip), vehicle: water 104 % of control | dose: 8.0 % in 0.5 ml injection vol, schedule: Q01DX009 (ip), vehicle: water 100 % of control and 107 % of control | dose: 16.0 % in 0.5 ml injection vol, schedule: Q01DX009 (ip), vehicle: water 94 % of control

Cc1csc2cc(Br)c3ccccc3c12
inactive: [1] 101 % of control | [2] 103 % of control

CC(=O)SCC(C)C(=O)N1CCCC1C(=O)NC(Cc1ccccc1)C(=O)O (centres undefined)
inactive: [3] 110 % of control | [4] 98 % of control | [5] 104 % of control

CC(=O)Oc1ccc2ccccc2c1-c1ccccn1
inactive: dose: 12.5 mg/kg/injection, schedule: Q01DX001 (ip), vehicle: saline + alcohol 101 % of control | dose: 25.0 mg/kg/injection, schedule: Q01DX001 (ip), vehicle: saline + alcohol 99 % of control | dose: 50.0 mg/kg/injection, schedule: Q01DX001 (ip), vehicle: saline + alcohol 100 % of control

Cc1ccc(/C=C/C(=O)/C=C/c2ccc(C)o2)o1
inactive: dose: 25.0 mg/kg/injection, schedule: Q01DX005 (ip), vehicle: DMSO 107 % of control | dose: 50.0 mg/kg/injection, schedule: Q01DX005 (ip), vehicle: DMSO 104 % of control | dose: 50.0 mg/kg/injection, schedule: Q01DX005 (ip), vehicle: saline with Tween-80 99 % of control | dose: 100.0 mg/kg/injection, schedule: Q01DX005 (ip), vehicle: DMSO 104 % of control | dose: 100.0 mg/kg/injection, schedule: Q01DX005 (ip), vehicle: saline with Tween-80 96 % of control | dose: 200.0 mg/kg/injection, schedule: Q01DX005 (ip), vehicle: DMSO 97 % of control | dose: 200.0 mg/kg/injection, schedule: Q01DX005 (ip), vehicle: saline with Tween-80 100 % of control | dose: 400.0 mg/kg/injection, schedule: Q01DX005 (ip), vehicle: DMSO 101 % of control
